The values that follow come from US20250361271A1, “PEPTIDE AGONIST” (THE UNIVERSITY OF BIRMINGHAM, priority 2022, published 2025).

Data set [1] deals with PBLs on cytokine stimulated HDBECs. Conditions: for % Inhibition (3 nM): 3 nM peptide; for % Inhibition (3 nM) / % Inhibition (0.3 nM): inhibition of PBL transmigration (as a percentage of adherent cells); for effectiveness in inhibiting PBL transmigration compared with PEPITEM (% Inhibition at 0.3 and/or 3 nM): PEPITEM 41.90; for % Inhibition (0.3 nM): 0.3 nM peptide.
Procedure: Blood samples were obtained from consensual healthy donors and were collected in EDTA tubes (Sigma-Aldrich). […] 5 ml of blood was layered on top of the density gradient, and was centrifuged at 2500 rpm for 45 minutes. […] The PBMCs were washed twice for 7 minutes at 1500 rpm. Peripheral blood lymphocytes (PBLs) were isolated via panning PBMCs onto a culture flask for 30 minutes at 37° C., allowing monocytes to adhere.
HDBECS defrosted at 37° C. in a 25 cm^2 cell culture flask in 10 ml of media were dissociated using EDTA (Sigma-Aldrich) and Trypsin (Gibco) and seeded on 10 wells in a 12-well tissue culture plates (Falcon) and left to adhere at 37° C. After 24 hours, confluent endothelial layers were cytokine stimulated using 100 U/ml TNF-α (Sigma-Aldrich) and 10 ng/ml IFN-γ (Peprotech) for 24 hours at 37° C. The peptide treatment of the 1×10^6 cells/ml PBLs consisted of adding the peptides immediately before use. […] 1×10^6 PBLs were added to each well and incubated at 37° C., allowing PBLs to adhere to migrate across the endothelium. […] Cells were then fixed with 2% glutaraldehyde for 10 minutes and then imaged using phase-contrast microscopy via an inverted bright-field microscope at 20× magnification.
Imaging of the PBL migration assay was carried out using ImagePro 7 software (Media Cybernetics). Surface adherent cells were categorised as being phase-bright, and transmigrated cells were categorised as phase-dark with altered morphology, appearing as being under the endothelial layer. Images were taken at 5 different fields of each well, and an average of counted adherent and migrated PBLs was calculated.
The same methods described for the in vitro transmigration assay and analysis were used, and PBL transmigration was calculated as a percentage of adherent cells. Peptides were added to the PBLs at concentrations ranging from 0.0001-500 ng/ml on the cytokine stimulated HDBECs and the resulting PBL transmigration (as a percentage of adherent cells) was plotted as a function of log10 of the peptide concentration.
The peptides were added at concentration of 20 ng/ml and run alongside untreated PBL (PBL0) and scrambled protein to analyse their effects on adhesion and transmigration.
The next data set can be described thus: T1/2 in plasma (mouse). Conditions: for half-life: mouse, plasma, 1 μM peptide, 37° C. The data set is classed as in vitro ADME. From the text: Take all measurements in duplicate.

Usually half-life stands for how long it takes for the measured level to halve. As a reminder, the IC50 is the concentration needed to halve the response being measured.

Where a SMILES comes first, the peptide text is derived from it. [ ]: non-standard residue; d: D form. d(pGlu) = O=C1CC[C@H](C(=O)O)N1; pGlu = O=C1CC[C@@H](C(=O)O)N1; Aib = CC(C)(N)C(=O)O

Procedure for T1/2 in blood (mouse): Store at −20° C. or on ice. • 2) Thaw the blood and spin in a centrifuge at 1500×g for 10 minutes at room temperature. • 3) Prepare stock solution of the peptide at 10 mM in DMSO or PBS and dilute solutions by adding 3 μL of 10 mM stock to 297 μL DMSO or PBS (100 μM stock for a final 1 μM concentration). • 4) Add 550 μL blood to an incubation tube and separately add 4 μL of peptide stock solution to an incubation tube. Warm the incubation tubes (5 minutes, 37° C., with shaking). • 5) After warming, add 396 μL of warmed blood to warmed peptide (time=0). Mix well and shake the tube containing the mixed sample (37° C., 1400×g). • 6) At 2, 5, 15, 30, 45 and 60 minutes after contacting the peptide and blood, collect 40 μL of the sample into pre-prepared quench tubes. • 7) Analyse the sample at each time point by mass spectrometry. Take all measurements in duplicate.
The samples were analysed and the T1/2 values were calculated by XenoGesis. The T1/2 values correspond to the time taken for the concentration of the peptide in the blood or plasma to be reduced by 50%.

On to `CC(=O)N[C@@H](CO)C(=O)N[C@H](C(=O)N[C@H](C(=O)O)[C@@H](C)O)C(C)C` [SEQ ID NO. 3, Ac-SVT] (Ac-Ser-Val-Thr-OH), for which, in data set [1], the “% Inhibition (3 nM)” value is 36.80%.
As to `CC(=O)N[C@@H](CO)C(=O)N[C@H](C(=O)N[C@H](C(N)=O)[C@@H](C)O)C(C)C` [SEQ ID NO. 5, Ac-SVT-NH2] (Ac-Ser-Val-Thr-NH2), in data set [1], the “% Inhibition (3 nM)” value worked out at 42.50% and the “effectiveness in inhibiting PBL transmigration compared with PEPITEM (% Inhibition at 0.3 and/or 3 nM)” value was “more effective”. The compound also showed a half-life in “T1/2 in plasma (mouse)” of 1.98 h.
Turning to `CC(C)[C@H](NC(=O)[C@@H](N)[C@@H](C)O)C(=O)N[C@H](C(N)=O)[C@@H](C)O` [SEQ ID NO. 8, H-TVT-NH2] (H-Thr-Val-Thr-NH2), in data set [1], the “% Inhibition (0.3 nM)” value is 45.47%, the “% Inhibition (3 nM)” value was 48.19% and the “effectiveness in inhibiting PBL transmigration compared with PEPITEM (% Inhibition at 0.3 and/or 3 nM)” value is “more effective”. Besides, the half-life in “T1/2 in plasma (mouse)” was 0.283 h.
For `CC(C)[C@H](NC(=O)[C@@H](N)CO)C(=O)N[C@@H](CO)C(N)=O` [SEQ ID NO. 9, H-SVS-NH2] (H-Ser-Val-Ser-NH2), in that order: 42.51%, 38.10%, “more effective” and 1.72 h.
`COC[C@H](N)C(=O)N[C@H](C(=O)N[C@H](C(N)=O)[C@@H](C)O)C(C)C` [SEQ ID NO. 12, H-S(OMe)VT-NH2] (H-Ser(Me)-Val-Thr-NH2): in data set [1], the “% Inhibition (0.3 nM)” value came to 34.72%, the “% Inhibition (3 nM)” value was 62.27% and the “effectiveness in inhibiting PBL transmigration compared with PEPITEM (% Inhibition at 0.3 and/or 3 nM)” value is recorded as “more effective”.
As to `CCCCCCNC(=O)[C@@H](NC(=O)[C@@H](NC(=O)[C@@H](N)CO)C(C)C)[C@@H](C)O` [SEQ ID NO. 13, H-SVT-NH-Hexyl], in data set [1], the “% Inhibition (0.3 nM)” value is listed as 23.56% and the “% Inhibition (3 nM)” value is 12.83%.
For `CC[C@H](C)[C@H](NC(=O)[C@@H](N)CO)C(=O)N[C@H](C(N)=O)[C@@H](C)O` [SEQ ID NO. 14, H-SIT-NH2] (H-Ser-Ile-Thr-NH2), in that order: 3.40% and 28.23%.
Turning to `CC(C)C[C@H](NC(=O)[C@@H](N)CO)C(=O)N[C@H](C(N)=O)[C@@H](C)O` [SEQ ID NO. 15, H-SLT-NH2] (H-Ser-Leu-Thr-NH2), in data set [1], the “% Inhibition (0.3 nM)” value is 46.00%, the “% Inhibition (3 nM)” value worked out at 20.75% and the “effectiveness in inhibiting PBL transmigration compared with PEPITEM (% Inhibition at 0.3 and/or 3 nM)” value is on record as “more effective”. The half-life in the data set “T1/2 in plasma (mouse)” came out at 0.117 h.
Turning to `C[C@@H](O)[C@H](NC(=O)[C@H](Cc1ccccc1)NC(=O)[C@@H](N)CO)C(N)=O` [SEQ ID NO. 16, H-SFT-NH2] (H-Ser-Phe-Thr-NH2), in data set [1], the “% Inhibition (0.3 nM)” value was determined as 39.78% and the “% Inhibition (3 nM)” value stood at 33.33%.
Take `C[C@@H](O)[C@H](NC(=O)[C@H](Cc1ccc(O)cc1)NC(=O)[C@@H](N)CO)C(N)=O` [SEQ ID NO. 18, H-SYT-NH2] (H-Ser-Tyr-Thr-NH2): in data set [1], the “% Inhibition (0.3 nM)” value came to 39.18%, the “% Inhibition (3 nM)” value is 42.83% and the “effectiveness in inhibiting PBL transmigration compared with PEPITEM (% Inhibition at 0.3 and/or 3 nM)” value is “more effective”. Besides, the half-life in “T1/2 in plasma (mouse)” was 0.283 h.
As to `CCNC(=O)[C@H](C)NC(=O)CNC(=O)[C@@H]1CCC(=O)N1` [SEQ ID NO. 22, pEGA-NH-Ethyl] ([pGlu]-Gly-Ala-NHEt), the “% Inhibition (0.3 nM)” value in data set [1] stood at 35.40%. For the same compound, the half-life in the data set “T1/2 in plasma (mouse)” was > 3 h.
For the compound `C[C@H](NC(=O)CNC(=O)[C@@H]1CCC(=O)N1)C(N)=O` [SEQ ID NO. 23, pEGA-NH2] ([pGlu]-Gly-Ala-NH2), in data set [1], half-maximal inhibition (IC50) was put at 3.2 pM, the “% Inhibition (0.3 nM)” value is 54.50% and the “effectiveness in inhibiting PBL transmigration compared with PEPITEM (% Inhibition at 0.3 and/or 3 nM)” value is given as “more effective”. Also, the “potency at inhibiting the transmigration of T cells compared with PEPITEM (IC50)” value in data set [1] (PEPITEM IC50 0.02) was “more potent”. The half-life in “T1/2 in plasma (mouse)” is > 3 h.
Regarding `CCNC(=O)[C@H](C)NC(=O)CNC(=O)[C@H](CCC(N)=O)NC(C)=O` [SEQ ID NO. 24, Ac-QGA-NH-Ethyl] (Ac-Gln-Gly-Ala-NHEt), in data set [1], the “% Inhibition (0.3 nM)” value came to 50.00% and the “effectiveness in inhibiting PBL transmigration compared with PEPITEM (% Inhibition at 0.3 and/or 3 nM)” value was “more effective”.
Consider `CC(=O)N[C@@H](CCC(N)=O)C(=O)NCC(=O)NC(C)(C)C(=O)O` [SEQ ID NO. 25, Ac-QGAib] (Ac-Gln-Gly-[Aib]-OH), for which, in data set [1], the “% Inhibition (0.3 nM)” value is given as 32.00%.
In turn, `CC(=O)N[C@H](CCC(N)=O)C(=O)NCC(=O)N[C@H](C)C(N)=O` [SEQ ID NO. 26, Ac-Q*GA*-NH2] had an IC50 in data set [1] of 18 pM. For the same compound, the “stability compared with PEPITEM” value in “T1/2 in plasma (mouse)” (in mouse plasma, human plasma, and or mouse blood) is reported as “at least as stable”. Also, in “T1/2 in plasma (mouse)”, the half-life was > 3 h.
Consider `C[C@@H](NC(=O)CNC(=O)[C@H]1CCC(=O)N1)C(N)=O` [SEQ ID NO. 28, pE*GA*-NH2] ([d(pGlu)]-Gly-[dA]-NH2), for which, in the data set “T1/2 in blood (mouse)”, the half-life came out at 1.17 h.
As to `CNC(=O)[C@H](C)NC(=O)CNC(=O)[C@@H]1CCC(=O)N1` [SEQ ID NO. 29, pEGA-NHMe] ([pGlu]-Gly-Ala-NHMe), in “T1/2 in blood (mouse)” (whole blood), the half-life stood at 1.62 h. In addition, in data set [1], the “% Inhibition (0.3 nM)” value came out at 40.89% and the “% Inhibition (3 nM)” value is listed as 43.35%.
`C[C@H](NC(=O)CNC(=O)[C@@H]1CCC(=O)N1)C(=O)N(C)C` [SEQ ID NO. 30, pEGA-N(Me)2] ([pGlu]-Gly-Ala-NMe2): the half-life in the data set “T1/2 in blood (mouse)” (whole blood) was > 3 h. For the same compound, in data set [1], the “% Inhibition (0.3 nM)” value is 44.70% and the “% Inhibition (3 nM)” value stood at 42.65%.
For `CC(C)[C@H](NC(=O)CNC(=O)[C@@H]1CCC(=O)N1)C(N)=O` [SEQ ID NO. 31, pEGV-NH2] ([pGlu]-Gly-Val-NH2), in that order: > 3 h, 49.94% and 50.27%.
For `CC(C)C[C@H](NC(=O)CNC(=O)[C@@H]1CCC(=O)N1)C(N)=O` [SEQ ID NO. 32, pEGL-NH2] ([pGlu]-Gly-Leu-NH2), in data set [1], the “% Inhibition (0.3 nM)” value is 25.34% and the “% Inhibition (3 nM)” value came out at 58.16%.
With `NC(=O)[C@H](Cc1ccccc1)NC(=O)CNC(=O)[C@@H]1CCC(=O)N1` [SEQ ID NO. 33, pEGF-NH2] ([pGlu]-Gly-Phe-NH2), the half-life in the data set “T1/2 in blood (mouse)” (whole blood) amounted to 2.43 h. In data set [1], the “% Inhibition (0.3 nM)” value was 49.15% and the “% Inhibition (3 nM)” value turned out to be 42.84%.
As for H-S*V*T*-NH2 [SEQ ID NO. 10], in data set [1], the “% Inhibition (0.3 nM)” value is given as 24.76% and the “% Inhibition (3 nM)” value was found to be 39.51%.
H-S*VT-NH2 [SEQ ID NO. 7]: the “% Inhibition (0.3 nM)” value in data set [1] turned out to be 9.50%.
For the compound SVTQAA [SEQ ID NO. 40], the PBL transmigration in data set [1] (PBL0 37%, FIG. 4) was 23%. In data set [1] (compared to untreated PBL (PBL0), 20 ng/ml), the “effect on PBL transmigration” value was “significant (p<0.01) fall in PBL transmigration”.
